# Measurements reported in US20230140972A1, “GLYCEROL GLUCOSIDE-BASED COMPOUND AND COMPOSITION COMPRISING SAME FOR ULTRAVIOLET LIGHT SHIELD OR ANTI-INFLAMMATION” (ATHENA CO., LTD., priority 2020, published 2023).
# “And” between values parts separate entries of the source, which are not always exact repeats. Equal values may be shown once.
# Columns and labels:
# Format in all cases: cell-based, mouse
# [1] = tested on: NO2 production in LPS-treated RAW264.7 cells; assay: Nitric oxide (NO2) production amount and inhibition, non-enzymatic method; conditions: LPS 1 μg/mL, 24 h
# Experimental: An NO assay was performed to evaluate an amount of nitric oxide (NO2) production and a production inhibition ability of the glycerol glucoside-based compound sample (EPS-S).
# Specifically, subcultured RAW264.7 cells were aliquoted into a 96-well plate at 1×10^5 cells/well, and cultured at 37° C. in an incubator containing 5% carbon dioxide for 24 hours, and then a culture media was replaced with a serum-free media. […] Dexamethasone was used as a positive control group.
# [2] = tested on: COX-2 mRNA in RAW264.7 cells; assay: COX-2 mRNA expression analysis (RT-qPCR); conditions: LPS 100 ng/mL
# Experimental: An RT-qPCR was performed to evaluate an mRNA expression inhibition ability of COX-2 and iNOS of the glycerol glucoside-based compound sample (EPS-S).
# Specifically, subcultured RAW264.7 cells were aliquoted into a 60 mm dish at 1.5×10^6 cells, and cultured at 37° C. in an incubator containing 5% carbon dioxide for 24 hours, and then a culture media was replaced with a serum-free media. Then, each sample was diluted by concentration and treated onto the cells with LPS (final 100 ng/mL). After culturing for 24 hours, cells were recovered, RNA was extracted, and cDNA was synthesized. For cDNA, qPCR was performed after mixing Real-time PCR Master Mix with TaqMan probes of each of COX-2 and iNOS. Dexamethasone was used as a positive control group. The test was conducted once, and the mRNA expression inhibition rate was obtained by analyzing the result by the ΔΔCt method, and then substituted into Equation 6 below to obtain the mRNA expression inhibition rate of COX-2 and iNOS of the treated sample group compared to the negative control group.
# [3] = tested on: total NO production in LPS-treated RAW264.7 cells; assay: Nitric oxide (total NO) production and inhibition, enzymatic method; conditions: LPS 1 μg/mL
# Experimental: An NO assay was performed to evaluate an amount of nitric oxide (total NO) production and a production inhibition rate of the glycerol glucoside-based compound sample (EPS-S).
# Specifically, subcultured RAW264.7 cells were aliquoted into a 96-well plate at 1×10^5 cells/well, and cultured at 37° C. in an incubator containing 5% carbon dioxide for 24 hours, and then a culture media was replaced with a serum-free media. Then, each sample is diluted by concentration and treated onto the cells with LPS (final 1 μg/mL). After culturing for 24 hours, a cell culture medium was treated with nitrate reductase, enzyme cofactor and enhancer to react. A Griess reagent was added and an absorbance was measured at 540 nm with a microplate reader. A total NO production was obtained by substituting the absorbance into a standard nitric oxide calibration curve, and a total NO production inhibition rate (%) was analyzed through Equation 2 and expressed as a mean±standard deviation. Dexamethasone was used as a positive control group.
# p-IκB = assay: Western blot of p-IκB protein expression; conditions: RAW264.7 cells, LPS, 15 minutes, 100 ppm; untreated = 100, negative control 390.06
# Experimental: (§1) A western blot was performed as follows to observe p-IKK, p-IκB and p-NF-κB protein expression abilities of the glycerol glucoside-based compound sample (EPS-S).
# (§2) Specifically, the subcultured mouse-derived macrophage line, RAW264.7 cells, were aliquoted in a 60 mm dish at 1.5×10^6 cells, and cultured for 24 hours at 37° C. in an incubator containing 5% carbon dioxide, and then a culture media was replaced with a serum-free media. Then, the glycerol glucoside-based compound sample (EPS-S) was diluted by concentration and treated onto the cells with LPS (final 1 μg/mL). After culturing for 15 minutes, protein was lysed (lysis) to recover cytoplasmic and nuclear extracts, and proteins were separated by size through SDS-PAGE. After transferring the protein to a membrane through a transfer, a primary antibody was attached thereto and reacted at 4° C. overnight. After the primary reaction, a secondary antibody was attached thereto, and reacted at room temperature for 1 hour, an ECL solution was sprayed on the entire surface, and a band image was obtained through a bioimage analyzer. After obtaining a band intensity of each band through Image J, normalization was performed using β-acitn and substituted in Equation 7 below to obtain the expression rate of p-IKK, p-IκB and p-NF-κB proteins in the treated sample group compared to the untreated group.
# p-IKK = assay: Western blot of p-IKK protein expression; conditions: RAW264.7 cells, LPS, 15 minutes, 100 ppm; untreated = 100, negative control 1001.95
# Experimental: as §1, §2
# RAW264.7 cells = assay: Cell viability measurement using MTT assay; conditions: vs untreated group
# Experimental: In order to evaluate a cell viability of the glycerol glucoside-based compound sample (EPS-S), an MTT assay was performed.
# Specifically, subcultured RAW264.7 cells and HDF cells were aliquoted into a 96-well plate at 1×10^5, respectively, and cultured for 24 hours at 37° C. in an incubator containing 5% carbon dioxide, and then, a culture media was replaced with a serum-free media. Then, each sample was treated onto each cell by concentration. After culturing for 24 hours, an MTT solution was put into each well, reacted for 2 hours under light blocking, a supernatant was removed, a formed formazan was completely dissolved in DMSO, and an absorbance was measured at 540 nm with a microplate reader. In such a case, SDS was used as a positive control group. The test result value was calculated as in Equation 1 below and expressed as the cell viability compared to an untreated group, and was expressed as a mean±standard deviation.
# p-NF-κB = assay: Western blot of p-NF-κB protein expression; conditions: RAW264.7 cells, LPS, 15 minutes, 100 ppm; untreated = 100, negative control 222.25
# Experimental: as §1, §2
# [4] = 24 h, 20 μM, listed as dexamethasone
# [5] = 24 h, 80 μM, listed as dexamethasone
smiles,measurement,setting,value
C[C@@H]1C[C@H]2[C@@H]3CCC4=CC(=O)C=C[C@]4(C)[C@@]3(F)[C@@H](O)C[C@]2(C)[C@@]1(O)C(=O)CO [Dexamethasone],NO2 production amount,[1]; 10 μM,21.29 ± 0.59 µM
same,NO2 production amount,"[1]; 10 μM, listed as dexamethasone",21.29 µM
same,NO2 production amount,[1]; 20 μM,20.79 ± 0.12 µM
same,NO2 production amount,"[1]; 20 μM, listed as dexamethasone",20.79 µM
same,NO2 production amount,[1]; 80 μM,19.62 ± 0.50 µM
same,NO2 production amount,"[1]; 80 μM, listed as dexamethasone",19.62 µM
same,inhibition at 10 µM,"[1]; Mus musculus, RAW264.7, 10 μM, read-out: NO2 production inhibition rate",21.5%
same,inhibition at 20 µM,"[1]; Mus musculus, RAW264.7, 20 μM, read-out: NO2 production inhibition rate",24.7%
same,inhibition at 80 µM,"[1]; Mus musculus, RAW264.7, 80 μM, read-out: NO2 production inhibition rate",32.3%
same,COX-2 mRNA expression inhibition rate,"[2]; 24 h, 1 μM",22.64 ± 1.27%
same,COX-2 mRNA expression inhibition rate,"[2]; 24 h, 1 μM, listed as dexamethasone",22.64%
same,COX-2 mRNA expression inhibition rate,"[2]; 24 h, 5 μM",71.72 ± 0.69%
same,COX-2 mRNA expression inhibition rate,"[2]; 24 h, 5 μM, listed as dexamethasone",71.72%
same,COX-2 mRNA expression inhibition rate,"[2]; 24 h, 20 μM",81.78 ± 0.60%
same,COX-2 mRNA expression inhibition rate,[2]; [4],81.78%
same,COX-2 mRNA expression inhibition rate,"[2]; 24 h, 80 μM",84.23 ± 0.41%
same,COX-2 mRNA expression inhibition rate,[2]; [5],84.23%
same,COX-2 mRNA expression inhibition rate,"[2]; 24 h, 10 Mm (table head; text 10 μM)",76.82 ± 1.73%
same,COX-2 mRNA expression inhibition rate,"[2]; 24 h, 10 Mm (table head; text 10 μM), listed as dexamethasone",76.82%
same,Total NO production,"[3]; 24 h, 10 μM",41.15 ± 0.43 µM
same,Total NO production,"[3]; 24 h, 10 μM, listed as dexamethasone",41.15 µM
same,Total NO production,"[3]; 24 h, 20 μM",38.84 ± 1.24 µM
same,Total NO production,[3]; [4],38.84 µM
same,Total NO production,"[3]; 24 h, 80 μM",37.82 ± 0.75 µM
same,Total NO production,[3]; [5],37.82 µM
same,inhibition at 10 µM,"[3]; Mus musculus, RAW264.7, 24 h, 10 μM, read-out: Total NO production inhibition rate",42.8%
same,inhibition at 20 µM,"[3]; Mus musculus, RAW264.7, 24 h, 20 μM, read-out: Total NO production inhibition rate",48.7%
same,inhibition at 80 µM,"[3]; Mus musculus, RAW264.7, 24 h, 80 μM, read-out: Total NO production inhibition rate",51.4%
COCC(COC)OC1OC(CO)C(O)C(O)C1O (centres unmarked) [EPS-S],NO2 production amount,[1]; 10 ppm,23.14 ± 0.25 µM
same,NO2 production amount,[1]; 100 ppm,23.14 µM and 22.57 ± 0.16 µM
same,NO2 production amount,[1]; 500 ppm (text b168),22.57 µM
same,NO2 production amount,[1]; 1000 ppm,20.90 µM and 20.90 ± 0.50 µM
same,inhibition at 100 ppm,"[1]; Mus musculus, RAW264.7, 100 ppm, read-out: NO2 production inhibition rate",9.47%
same,inhibition at 500 ppm,"[1]; Mus musculus, RAW264.7, 500 ppm, read-out: NO2 production inhibition rate",13.2%
same,inhibition at 1000 ppm,"[1]; Mus musculus, RAW264.7, 1000 ppm, read-out: NO2 production inhibition rate",24%
same,p-IκB protein expression rate,p-IκB,203.52%
same,COX-2 mRNA expression inhibition rate,"[2]; 24 h, 10 ppm",−9.09% and −9.09 ± 3.16%
same,COX-2 mRNA expression inhibition rate,"[2]; 24 h, 100 ppm",74.44% and 74.44 ± 0.91%
same,COX-2 mRNA expression inhibition rate,"[2]; 24 h, 500 ppm",76.43% and 76.43 ± 1.11%
same,COX-2 mRNA expression inhibition rate,"[2]; 24 h, 1,000 ppm",83.19% and 83.19 ± 1.30%
same,p-IKK protein expression rate,p-IKK,514.98%
same,Total NO production,"[3]; 24 h, 100 ppm",62.07 µM and 62.07 ± 0.48 µM
same,Total NO production inhibition rate,"[3]; 24 h, 100 ppm",−3.85 ± 2.22%
same,Total NO production,"[3]; 24 h, 500 ppm",59.20 µM and 59.20 ± 0.86 µM
same,Total NO production,"[3]; 24 h, 1000 ppm",53.38 µM and 53.38 ± 0.18 µM
same,inhibition at 10 ppm,"[3]; Mus musculus, RAW264.7, 24 h, 10 ppm, read-out: Total NO production inhibition rate",-11.3 ± 1.24%
same,inhibition at 500 ppm,"[3]; Mus musculus, RAW264.7, 24 h, 500 ppm (text b176), read-out: Total NO production inhibition rate",-3.84%
same,inhibition at 1000 ppm,"[3]; Mus musculus, RAW264.7, 24 h, 1000 ppm, read-out: Total NO production inhibition rate",11.2%
same,cell viability,"RAW264.7 cells; 24 h, 1 ppm",103.36% and 103.36 ± 0.88%
same,cell viability,"RAW264.7 cells; 24 h, 10 ppm",104.47% and 104.47 ± 3.61%
same,cell viability,"RAW264.7 cells; 24 h, 100 ppm",108.58% and 108.58 ± 1.99%
same,cell viability,"RAW264.7 cells; 24 h, 1,000 ppm",113.79% and 113.79 ± 0.13%
same,p-NF-κB protein expression rate,p-NF-κB,185.30%
